Data reported in patent publication US20250368649A1, “TETRAHYDROPYRIDOPYRIMIDINE PAN-KRAS INHIBITORS” (Mirati Therapeutics, Inc., priority 2022, published 2025).

What was measured:
HCT116 cells = assay: Inhibition of KRas-mediated phosphorylation of ERK (Cisbio HTRF pERK), HCT116 cells; assay type: cell-based; conditions: Homo sapiens, HCT-116, single point at 100 nM, 3 hrs compound incubation
KRas G12D = KRas G12D (Homo sapiens, UniProt P01116, G12D); assay: biochemical; conditions: Binding to KRas (IC50 nM) G12D
Chain of KRas G12D (P01116 1-169 isoform P01116-2 G12D): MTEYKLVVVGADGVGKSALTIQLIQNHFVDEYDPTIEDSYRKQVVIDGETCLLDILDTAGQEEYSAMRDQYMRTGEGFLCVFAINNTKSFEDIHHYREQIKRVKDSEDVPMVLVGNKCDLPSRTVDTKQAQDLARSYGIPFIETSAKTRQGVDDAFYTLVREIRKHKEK

H727 cells = assay: Inhibition of KRas-mediated phosphorylation of ERK (Cisbio HTRF pERK), H727 cells; assay type: cell-based; conditions: Homo sapiens; for inhibition at 0.1 µM: NCI-H727, single point at 100 nM, 3 hrs compound incubation; for IC50: NCI-H727, 3 h, 3 hr compound incubation, Cisbio pERK HTRF
H460 cells = assay: Inhibition of KRas-mediated phosphorylation of ERK (Cisbio HTRF pERK), H460 cells; assay type: cell-based; conditions: Homo sapiens, NCI-H460, single point at 100 nM, 3 hrs compound incubation
KRas G12V = KRas G12V (Homo sapiens, UniProt P01116, G12V); assay: biochemical; conditions: Binding to KRas (IC50 nM) G12V
Chain of KRas G12V (P01116 1-169 isoform P01116-2 G12V): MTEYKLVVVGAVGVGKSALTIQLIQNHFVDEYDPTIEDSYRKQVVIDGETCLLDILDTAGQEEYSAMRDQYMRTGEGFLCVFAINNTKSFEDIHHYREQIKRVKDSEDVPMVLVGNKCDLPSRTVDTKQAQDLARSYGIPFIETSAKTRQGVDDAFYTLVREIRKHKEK

KRas G12R = KRas G12R (Homo sapiens, UniProt P01116, G12R); assay: biochemical; conditions: Binding to KRas (IC50 nM) G12R
Chain of KRas G12R (P01116 1-169 isoform P01116-2 G12R): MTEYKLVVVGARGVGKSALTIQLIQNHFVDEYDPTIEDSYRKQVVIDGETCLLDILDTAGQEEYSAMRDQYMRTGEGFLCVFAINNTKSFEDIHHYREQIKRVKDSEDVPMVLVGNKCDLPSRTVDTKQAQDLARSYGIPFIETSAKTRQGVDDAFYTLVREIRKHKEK

ASPC1 cells = assay: Inhibition of KRas-mediated phosphorylation of ERK (Cisbio HTRF pERK), ASPC1 cells; assay type: cell-based; conditions: Homo sapiens, AsPC-1 cells; for inhibition at 0.1 µM: ASPC1, single point at 100 nM, 3 hrs compound incubation; for IC50: ASPC1, 3 h, 3 hr compound incubation, Cisbio pERK HTRF
H358 cells = assay: Inhibition of KRas-mediated phosphorylation of ERK (Cisbio HTRF pERK), H358 cells; assay type: cell-based; conditions: Homo sapiens, NCI-H358, single point at 100 nM, 3 hrs compound incubation
A549 cells = assay: Inhibition of KRas-mediated phosphorylation of ERK (Cisbio HTRF pERK), A549 cells; assay type: cell-based; conditions: Homo sapiens, single point at 100 nM, 3 hrs compound incubation
[1] = TR-FRET displacement, KRas G12D
[2] = TR-FRET displacement, KRas G12V
[3] = TR-FRET displacement, KRas G12R

| Compound | inhibition at 0.1 µM (HCT116 cells) [%] | IC50 (KRas G12D) [nM] | inhibition at 0.1 µM (H727 cells) [%] | inhibition at 0.1 µM (H460 cells) [%] | IC50 (KRas G12V) [nM] | IC50 (KRas G12R) [nM] | inhibition at 0.1 µM (ASPC1 cells) [%] | inhibition at 0.1 µM (H358 cells) [%] | inhibition at 0.1 µM (A549 cells) [%] | IC50 (KRas G12D; [1]) [nM] | IC50 (H727 cells) [nM] | IC50 (KRas G12V; [2]) [nM] | IC50 (KRas G12R; [3]) [nM] | IC50 (ASPC1 cells) [nM] |
| --- | --- | --- | --- | --- | --- | --- | --- | --- | --- | --- | --- | --- | --- | --- |
| CCc1c(F)ccc2cc(OP(C)(C)=O)cc(N3CCc4c(nc(OC[C@@]56CCCN5C[C@H](F)C6)nc4N4CCCn5nc(NC)cc5C4)C3)c12 [Example 446, 5-ethyl-6-fluoro-4-(2-(((2R,7aS)-2-fluorohexahydro-1H-pyrrolizin-7a-yl)methoxy)-4-(2-(methylamino)-7,8-dihydro-4H-pyrazolo[1,5-a][1,4]diazepin-5(6H)-yl)-5,6-dihydropyrido[3,4-d]pyrimidin-7(8H)-yl)naphthalen-2-yl dimethylphosphinate] | 0 | 12 | 13 | 27 | 9 | 3 | 21 |  |  |  |  |  |  |  |
| CCc1c(F)ccc2cc(O)cc(N3CCc4c(nc(OC[C@@]56CCCN5C[C@H](F)C6)nc4N4CCCc5nn(C6COC6)cc5C4)C3)c12 [Example 242, 5-ethyl-6-fluoro-4-(2-(((2R,7aS)-2-fluorohexahydro-1H-pyrrolizin-7a-yl)methoxy)-4-(2-(oxetan-3-yl)-7,8-dihydropyrazolo[4,3-c]azepin-5(2H,4H,6H)-yl)-5,6-dihydropyrido[3,4-d]pyrimidin-7(8H)-yl)naphthalen-2-ol] |  |  | 2 |  |  |  | -9 | 3 | 6 | 57 | 5630 | 85 | 49 | 3480 |
| CCc1c(F)ccc2cc(O)cc(N3CCc4c(nc(OC[C@@]56CCCN5C[C@H](F)C6)nc4N4CCCn5nc(CS(=O)(=O)NC)cc5C4)C3)c12 [Example 495, 1-(5-(7-(8-ethyl-7-fluoro-3-hydroxynaphthalen-1-yl)-2-(((2R,7aS)-2-fluorohexahydro-1H-pyrrolizin-7a-yl)methoxy)-5,6,7,8-tetrahydropyrido[3,4-d]pyrimidin-4-yl)-5,6,7,8-tetrahydro-4H-pyrazolo[1,5-a][1,4]diazepin-2-yl)-N-methylmethanesulfonamide] |  |  | 3 |  |  |  | -1 | 1 | 26 | 3 | 2900 | 12 | 11 | 1240 |
| CCc1c(F)ccc2cc(O)cc(N3CCc4c(nc(OC[C@@]56CCCN5C[C@H](F)C6)nc4N4CC(=O)Nc5cc(Br)ccc5C4)C3)c12 [Example 319, 8-bromo-4-(7-(8-ethyl-7-fluoro-3-hydroxynaphthalen-1-yl)-2-(((2R,7aS)-2-fluorotetrahydro-1H-pyrrolizin-7a(5H)-yl)methoxy)-5,6,7,8-tetrahydropyrido[3,4-d]pyrimidin-4-yl)-1,3,4,5-tetrahydro-2H-benzo[e][1,4]diazepin-2-one] | 8 |  |  | -10 |  |  |  |  |  | 32800 | 3360 | 4620 | 6880 | 7080 |
| CCCCCCCCN(C)C(=O)c1cc2n(n1)CCCN(c1nc(OC[C@@]34CCCN3C[C@H](F)C4)nc3c1CCN(c1cc(O)cc4ccc(F)c(CC)c14)C3)C2 [Example 498, 5-(7-(8-ethyl-7-fluoro-3-hydroxynaphthalen-1-yl)-2-(((2R,7aS)-2-fluorohexahydro-1H-pyrrolizin-7a-yl)methoxy)-5,6,7,8-tetrahydropyrido[3,4-d]pyrimidin-4-yl)-N-methyl-N-octyl-5,6,7,8-tetrahydro-4H-pyrazolo[1,5-a][1,4]diazepine-2-carboxamide] |  |  | 12 |  |  |  | -13 | 5 | 25 | 10 | 410 | 9 | 22 | 258 |
| CCc1c(F)ccc2cc(O)cc(N3CCc4c(nc(OC[C@@]56CCCN5C[C@H](F)C6)nc4N4CCCn5nc(C(=O)N6CC7(CNC7)C6)cc5C4)C3)c12 [Example 505, (5-(7-(8-ethyl-7-fluoro-3-hydroxynaphthalen-1-yl)-2-(((2R,7aS)-2-fluorohexahydro-1H-pyrrolizin-7a-yl)methoxy)-5,6,7,8-tetrahydropyrido[3,4-d]pyrimidin-4-yl)-5,6,7,8-tetrahydro-4H-pyrazolo[1,5-a][1,4]diazepin-2-yl)(2,6-diazaspiro[3.3]heptan-2-yl)methanone] | 7 |  | 26 | 0 |  |  | 30 |  |  |  | 1080 |  |  | 128 |
| CCc1c(F)ccc2cc(O)cc(N3CCc4c(nc(N5CC(C)(N)C5)nc4N4CCCC5(C4)NC(=O)NC5=O)C3)c12 (stereo not drawn) [Example 488, 7-(2-(3-amino-3-methylazetidin-1-yl)-7-(8-ethyl-7-fluoro-3-hydroxynaphthalen-1-yl)-5,6,7,8-tetrahydropyrido[3,4-d]pyrimidin-4-yl)-1,3,7-triazaspiro[4.5]decane-2,4-dione] | -1 |  | 5 | 14 |  |  | 13 |  |  | 20 | 7510 | 9 | 13 | > 10000 |
| CCc1c(F)ccc2cc(O)cc(N3CCc4c(nc(OC[C@@]56CCCN5C[C@H](F)C6)nc4N4CCCn5nc(C(N(C)C)C(F)(F)F)cc5C4)C3)c12 (stereo partly drawn) [Example 280, 4-(4-(2-(1-(dimethylamino)-2,2,2-trifluoroethyl)-7,8-dihydro-4H-pyrazolo[1,5-a][1,4]diazepin-5(6H)-yl)-2-(((2R,7aS)-2-fluorotetrahydro-1H-pyrrolizin-7a(5H)-yl)methoxy)-5,8-dihydropyrido[3,4-d]pyrimidin-7(6H)-yl)-5-ethyl-6-fluoronaphthalen-2-ol] |  |  |  |  |  |  |  | 14 | -20 | 195 | > 10000 | 264 | 230 | 7000 |
| CCc1c(F)ccc2cc(O)cc(N3CCc4c(nc(OC[C@@]56CCCN5C[C@H](F)C6)nc4N4CCCc5nn(C6CCC6)cc5C4)C3)c12 [Example 241, 4-(4-(2-cyclobutyl-7,8-dihydropyrazolo[4,3-c]azepin-5(2H,4H,6H)-yl)-2-(((2R,7aS)-2-fluorohexahydro-1H-pyrrolizin-7a-yl)methoxy)-5,6-dihydropyrido[3,4-d]pyrimidin-7(8H)-yl)-5-ethyl-6-fluoronaphthalen-2-ol] |  |  | -4 |  |  |  | 5 | -15 | 5 | 173 | 5020 | 155 | 48 | 7110 |
| CCc1c(F)ccc2cc(O)cc(N3CCc4c(nc(OC[C@@]56CCCN5C[C@H](F)C6)nc4N4CCCn5nc(N(C(C)=O)C(C)C)cc5C4)C3)c12 [Example 287, N-(5-(7-(8-ethyl-7-fluoro-3-hydroxynaphthalen-1-yl)-2-(((2R,7aS)-2-fluorohexahydro-1H-pyrrolizin-7a-yl)methoxy)-5,6,7,8-tetrahydropyrido[3,4-d]pyrimidin-4-yl)-5,6,7,8-tetrahydro-4H-pyrazolo[1,5-a][1,4]diazepin-2-yl)-N-i sopropyvlacetamide] |  |  |  |  |  |  |  | -20 | -15 | 505 | > 10000 | 717 | 441 | 6450 |
| CCc1c(F)ccc2cc(O)cc(N3CCc4c(nc(OC[C@@]56CCCN5C[C@H](F)C6)nc4N4CCCc5c(cnn5C5CCC5)C4)C3)c12 [Example 240, 4-(4-(1-cyclobutyl-7,8-dihydropyrazolo[4,3-c]azepin-5(1H,4H,6H)-yl)-2-(((2R,7aS)-2-fluorohexahydro-1H-pyrrolizin-7a-yl)methoxy)-5,6-dihydropyrido[3,4-d]pyrimidin-7(8H)-yl)-5-ethyl-6-fluoronaphthalen-2-ol] |  |  | -18 |  |  |  | -5 | -1 | -1 | 9840 |  | 2380 | 7480 |  |
| CCc1c(F)ccc2cc(O)cc(N3CCc4c(nc(OC[C@@]56CCCN5C[C@H](F)C6)nc4N4CCCc5c(cnn5C5CC5)C4)C3)c12 [Example 238, 4-(4-(1-cyclopropyl-7,8-dihydropyrazolo[4,3-c]azepin-5(1H,4H,6H)-yl)-2-(((2R,7aS)-2-fluorohexahydro-1H-pyrrolizin-7a-yl)methoxy)-5,6-dihydropyrido[3,4-d]pyrimidin-7(8H)-yl)-5-ethyl-6-fluoronaphthalen-2-ol] |  |  | -2 |  |  |  | 9 | -17 | -3 | 1390 |  | 1140 | 4610 |  |
